# Measured values: patent US7750038B2, “Sulfonylated heterocycles useful for modulation of the progesterone receptor” (Wyeth LLC, priority 2007, dated 2010)
# Tested on: alkaline phosphatase activity in T47D cells
# Assay: Effects of progestins and antiprogestins on alkaline phosphatase activity in T47D cells
# Type: cell-based
# Settings: Homo sapiens, agonist mode, typical value of reference compound
# Protocol: Effects of Progestins and Antiprogestins on Alkaline Phosphatase Activity in T47D Cells
# PURPOSE: To identify progestins or antiprogestins by determining a compound's effect on alkaline phosphatase activity in T47D cells.
# Culture medium: DMEM:F12 (1:1) (GIBCO, BRL) supplemented with 5% (v/v) charcoal stripped fetal bovine serum (not heat-inactivated), 100 U/mL penicillin, 100 μg/mL streptomycin, and 2 mM the GlutaMax™ reagent (GIBCO, BRL).
# Alkaline phosphatase assay buffer: • I. 0.1M Tris-HCl, pH 9.8, containing 0.2% the Triton® X-100 reagent • II. 0.1M Tris-HCl, pH 9.8, containing 4 mM p-nitrophenyl phosphate (Sigma).
# Frozen T47D cells were thawed in a 37° C. water bath and diluted to 280,000 cells/mL in culture medium. To each well in a 96-well plate (Falcon, Becton Dickinson Labware), 180 μL of diluted cell suspension was added. Twenty μL of reference or test compounds diluted in the culture medium was then added to each well. When testing for progestin antagonist activity, reference antiprogestins or test compounds were added in the presence of 1 nM progesterone. The cells were incubated at 37° C. in a 5% CO2/humidified atmosphere for 24 hours. For high throughput screening, one concentration of each compound was tested at 0.3 μg/mL. Based on an average molecular weight of 300 g/mol for the compounds in the library, the concentration was approximately 1 μM. Subsequently, active compounds were tested in dose response assays to determine EC50 and IC50.
# At the end of treatment, the medium was removed from the plate. Fifty μL of assay buffer I was added to each well. The plates were shaken in a titer plate shaker for 15 min. Then, 150 μL of assay buffer II was added to each well. Optical density measurements were taken at 5 min intervals for 30 min at a test wavelength of 405 nm.
# For reference and test compounds, a dose response curve was generated for dose (X-axis) vs. the rate of enzyme reaction (slope) (Y-axis). Square root-transformed data were used for analysis of variance and nonlinear dose response curve fitting for both agonist and antagonist modes. Huber weighting was used to down-weight the effects of outliers. EC50 or IC50 values were calculated from the retransformed values. JMP software (SAS Institute, Inc.) is used for both one-way analysis of variance and non-4 linear dose response analysis in both single dose and dose response studies.
# Progesterone and trimegestone are reference progestins known in the art and typically show an EC50 of about 0.1 nM to about 2.0 nM.
row,Compound,EC50 [nM]
1,CC(=O)[C@H]1CC[C@H]2[C@@H]3CCC4=CC(=O)CC[C@]4(C)[C@H]3CC[C@]12C [Progesterone],0.1 to 2

# Same assay, conditions: Homo sapiens, antagonist mode, typical value of reference compound, read-out: IC50 of reference antiprogestin, alkaline phosphatase T47D
row,Compound,IC50 [nM]
1,"CC#C[C@]1(O)CC[C@H]2[C@@H]3CCC4=CC(=O)CCC4=C3[C@@H](c3ccc(N(C)C)cc3)C[C@@]21C [RU486, reference compound]",0.1 to 2

# Same assay, conditions: Homo sapiens, progestin antagonist mode in the presence of 1 nM progesterone, 24 hours, read-out: Alkaline Phosphatase T47D IC50
row,Compound,IC50 [nM]
1,"Cn1c(C#N)ccc1-c1ccc2c(c1)C(C)(C)CN2S(C)(=O)=O [Example 2, 5-[3,3-dimethyl-1-(methylsulfonyl)-2,3-dihydro-1H-indol-5-yl]-1-methyl-1H-pyrrole-2-carbonitrile]",9.2
2,"CCS(=O)(=O)N1CC(C)(C)c2cc(-c3ccc(C#N)n3C)ccc21 [Example 3, 5-[1-(ethylsulfonyl)-3,3-dimethyl-2,3-dihydro-1H-indol-5-yl]-1-methyl-1H-pyrrole-2-carbonitrile]",6.8
3,"Cn1c(C#N)ccc1-c1cc(F)c2c(c1)CCN2S(C)(=O)=O [Example 7, 5-[7-fluoro-1-(methylsulfonyl)-2,3-dihydro-1H-indol-5-yl]-1-methyl-1H-pyrrole-2-carbonitrile]",11.1
4,"CCS(=O)(=O)N1CCc2cc(-c3ccc(C#N)n3C)cc(F)c21 [Example 8, 5-[1-(ethylsulfonyl)-7-fluoro-2,3-dihydro-1H-indol-5-yl]-1-methyl-1H-pyrrole-2-carbonitrile]",12.2
5,"Cn1c(C#N)ccc1-c1ccc2c(c1)CCCN2S(C)(=O)=O [Example 9, 1-methyl-5-[1-(methylsulfonyl)-1,2,3,4-tetrahydroquinolin-6-yl]-1H-pyrrole-2-carbonitrile]",4.4

# Now from value to compound:
row,IC50 [nM],Compound
1,4.3,"Cn1c(C#N)ccc1-c1ccc2c(c1)CCN2S(C)(=O)=O [Example 1, 1-methyl-5-[1-(methylsulfonyl)-2,3-dihydro-1H-indole-5-yl]-1H-pyrrole-2-carbonitrile]"
2,2.4,"CCS(=O)(=O)N1CCc2cc(-c3ccc(C#N)n3C)ccc21 [Example 4, 5-[1-(ethylsulfonyl)-2,3-dihydro-1H-indol-5-yl]-1-methyl-1H-pyrrole-2-carbonitrile]"
3,4.9,"CC(C)S(=O)(=O)N1CCc2cc(-c3ccc(C#N)n3C)ccc21 [Example 5, 5-[1-(isopropylsulfonyl)-2,3-dihydro-1H-indol-5-yl]-1-methyl-1H-pyrrole-2-carbonitrile]"
4,2.3,"CCCS(=O)(=O)N1CCc2cc(-c3ccc(C#N)n3C)ccc21 [Example 6, 1-methyl-5-[1-(propylsulfonyl)-2,3-dihydro-1H-indol-5-yl]-1H-pyrrole-2-carbonitrile]"
5,3.15,"CCS(=O)(=O)N1CCCc2cc(-c3ccc(C#N)n3C)ccc21 [Example 10, 5-[1-(ethylsulfonyl)-1,2,3,4-tetrahydroquinolin-6-yl]-1-methyl-1H-pyrrole-2-carbonitrile]"
6,3.6,"CCCS(=O)(=O)N1CCCc2cc(-c3ccc(C#N)n3C)ccc21 [Example 11, 1-methyl-5-[1-(propylsulfonyl)-1,2,3,4-tetrahydroquinolin-6-yl]-1H-pyrrole-2-carbonitrile]"
